Values joined by “and” are separate entries in the source; they are usually repeats but may differ in a detail not shown here. Identical values can stand only once. “Also recorded” adds a separate entry of the source. Like-named read-outs stand apart in the source and are kept apart here. Each block holds one molecule with its values, some of them ahead of it.
Key:
[1] = system: LO2 cell line; assay: Cell viability assay (CCK8), LO2; assay type: cell-based
Protocol: (§1) Next, the culture was replaced by fresh DMEM medium (200 μL) and the compound (10 μL) was added. After forty-eight hours, the medium was replaced by PBS (180 μL) mixture with CCK8 solution (20 μL) in each well. Cell viability was evaluated by testing the OD450 nm. The data were processed by GraphPad Prism 7.0 [45, 46].

[2] = molecular target: T1, ENPP1 in the MDA-MB-231 cell line (Homo sapiens, UniProt P22413); assay: Cellular ENPP1 enzymatic inhibition assay in MDA-MB-231 cells (pNP-TMP); assay type: cell-based; conditions: 4 h incubation, 200 μM pNP-TMP; three independent cell assays; read-out: IC50 against ENPP1 in MDA-MB-231 cell line
T1 construct: MDA-MB-231 cells highly expressed ENPP1; endogenous in cells; host or cells: MDA-MB-231
T1 sequence (P22413 1-925): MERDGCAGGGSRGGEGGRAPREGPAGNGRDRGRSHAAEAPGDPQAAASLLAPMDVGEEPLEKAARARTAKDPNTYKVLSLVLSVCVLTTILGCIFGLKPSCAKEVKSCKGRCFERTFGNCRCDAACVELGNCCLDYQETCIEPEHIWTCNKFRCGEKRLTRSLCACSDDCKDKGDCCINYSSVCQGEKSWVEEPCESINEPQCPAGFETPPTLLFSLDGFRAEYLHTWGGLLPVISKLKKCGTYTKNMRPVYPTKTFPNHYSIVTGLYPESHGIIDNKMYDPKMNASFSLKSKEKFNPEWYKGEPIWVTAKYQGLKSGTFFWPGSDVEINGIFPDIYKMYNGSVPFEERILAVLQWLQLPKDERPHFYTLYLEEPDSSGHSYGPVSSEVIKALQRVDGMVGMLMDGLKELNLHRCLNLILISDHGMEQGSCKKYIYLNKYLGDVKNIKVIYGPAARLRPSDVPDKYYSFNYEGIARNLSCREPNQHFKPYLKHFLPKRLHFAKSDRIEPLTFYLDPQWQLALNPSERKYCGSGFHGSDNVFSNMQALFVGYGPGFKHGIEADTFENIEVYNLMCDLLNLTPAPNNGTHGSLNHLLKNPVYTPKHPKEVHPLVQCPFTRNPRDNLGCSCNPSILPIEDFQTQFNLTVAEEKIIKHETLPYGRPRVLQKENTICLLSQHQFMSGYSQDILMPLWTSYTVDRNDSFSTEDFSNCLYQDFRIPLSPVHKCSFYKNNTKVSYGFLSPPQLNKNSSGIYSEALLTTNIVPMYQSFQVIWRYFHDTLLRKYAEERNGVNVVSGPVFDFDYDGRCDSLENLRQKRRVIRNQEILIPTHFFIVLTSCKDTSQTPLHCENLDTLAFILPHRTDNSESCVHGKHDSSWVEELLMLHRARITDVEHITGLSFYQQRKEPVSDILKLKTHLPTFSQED
Protocol: MDA-MB-231 (1.0 × 10^4 cells/well) were grown on 96-well microplates (IWAKI) overnight in the culture medium (100 μL/well) in a humidified incubator containing 5% CO2 in air at 37 °C for 24 h. The plates were washed with D-Hanks (100 μL) twice, and fresh D-Hanks (80 μL) was added. 5% DMSO or test compound (10 μL) was added to each well, and eventually pNP-TMP (2 mM, 10 μL, final 200 μM) was added. After 4 h incubation at 37 °C, the amounts of released p-nitrophenolate were measured at 405 nm. The IC50 values of test compounds were calculated by plotting three independent experiments using the program Prism 5.0 [38].

[3] = system: 293T cell line; assay: Cell viability assay (CCK8), 293T; assay type: cell-based
Protocol: as §1

[4] = system: IFN-β in serum; assay: IFN-β in mouse serum by ELISA after i.v. administration; assay type: in vivo, BALB/c nude mice; conditions: blood after 0.5 h
Protocol: The animal studies were conducted with the approval of the Animal Care and Use Committee at Fudan University. BALB/c nude mice (6−8 weeks) were randomized into three groups (n = 3, with a total tumor number of 9). Free cGAMP (at dose of 5 mg/kg) and cGAMP-compound 4e (at doses of 5 mg/kg cGAMP and 0.5 mg/kg compound 4e), respectively, were injected intravenously (i.v.) into mice via tail vein. After i.v. administration, mouse blood samples were collected from ophthalmic vein after 0.5 h and centrifuged at 500× g for 20 min. The concentration of IFN-β in the serum was determined by mouse ELISA kits, according to the instruction manual.

[5] = system: 4T1 cell line; assay: Cell proliferation assay (CCK8), 4T1; assay type: cell-based; conditions: CCK8, 48 h, read-out: IC50 against 4T1 cell line
Protocol: as §1, with “In total, 1 × 10^4 cells (4T1, LO2 and 293T) were plated in 96-well flat-bottom plates in a final volume of 200 μL DMEM supplemented with 10% FBS and cultured for 24 h. Next,” for “Next,”

[6] = molecular target: T2, human soluble ENPP1 (Homo sapiens, UniProt P22413); assay: Enzyme-based ENPP1 inhibitory assay (pNP-TMP substrate, 405 nm); assay type: biochemical; conditions: for inhibition at 10 µM: pH 9, 10 μM compound, 200 μM pNP-TMP, pH 9.0, 37 °C; for IC50: three independent enzymatic assays, read-out: IC50 against ENPP1 (enzymatic assay)
T2 construct: addition of 20 ng of human soluble ENPP1; His; made in house; host or cells: 293-F cells (protein harvested from the medium)
T2 sequence (P22413 103-925 limits assumed): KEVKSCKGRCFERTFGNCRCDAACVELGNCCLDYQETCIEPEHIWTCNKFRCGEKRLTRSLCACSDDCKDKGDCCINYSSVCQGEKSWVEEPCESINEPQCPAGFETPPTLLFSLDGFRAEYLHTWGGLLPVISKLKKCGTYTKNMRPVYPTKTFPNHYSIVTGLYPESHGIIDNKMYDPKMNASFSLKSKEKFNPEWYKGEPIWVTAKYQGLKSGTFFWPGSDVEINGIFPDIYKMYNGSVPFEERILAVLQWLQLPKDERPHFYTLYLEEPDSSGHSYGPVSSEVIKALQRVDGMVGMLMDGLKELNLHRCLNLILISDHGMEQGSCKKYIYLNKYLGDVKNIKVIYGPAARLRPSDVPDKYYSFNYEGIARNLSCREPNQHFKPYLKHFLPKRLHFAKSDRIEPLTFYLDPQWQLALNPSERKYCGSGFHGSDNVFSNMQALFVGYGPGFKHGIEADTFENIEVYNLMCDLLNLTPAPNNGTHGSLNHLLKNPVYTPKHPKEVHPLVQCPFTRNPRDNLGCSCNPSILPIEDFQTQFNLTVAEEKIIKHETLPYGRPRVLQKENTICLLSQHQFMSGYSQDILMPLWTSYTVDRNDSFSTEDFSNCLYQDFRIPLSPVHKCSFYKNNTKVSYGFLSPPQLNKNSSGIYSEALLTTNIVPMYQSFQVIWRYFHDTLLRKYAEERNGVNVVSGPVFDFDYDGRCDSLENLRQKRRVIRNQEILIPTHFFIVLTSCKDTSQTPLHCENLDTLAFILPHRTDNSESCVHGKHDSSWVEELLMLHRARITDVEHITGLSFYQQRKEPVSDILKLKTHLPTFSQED
Protocol: In total, 1 mg hENPP1-HIS DNA using polyethylenimine at a DNA:PEI ratio of 1:3 was transfected into 1 L of 293-F cells in 293 freestyle medium. The medium was harvested after five days and filter-sterilized. […] Approximately 1 mg of purified protein was obtained from the 1-liter culture. The quality of the protein purification was validated by SDS-PAGE analysis (see Figure S1).
The initial screenings were carried out at 37 °C in a total volume of 0.1 mL of the following incubation mixture: 1 mM CaCl2, 200 μM ZnCl2, 50 mM Tris, pH 9.0, and 10 μM of each test compound. The enzyme reactions began with the addition of 20 ng of human soluble ENPP1, then incubated at 37 °C for 10 min and initiated by the addition of 200 μM pNP-TMP. The production of p-nitrophenol was measured after 30 min reaction at 405 nm. […] For the blank samples, the enzyme was added at the end of the reaction and read immediately. The IC50 values of test compounds were calculated by plotting three independent experiments using the program Prism 5.0. Incubation and operation conditions remained the same as those described above.

IC50 [2]: < 1000 nM and 732 nM
IC50 ([5]; Mus musculus, 4T1): 2.99 µM
inhibition at 10 µM [6]: > 90%
IC50 [6]: 188 nM and < 1000 nM
Compound: COc1ccc2[nH]c(SCc3nc4cc(F)ccc4c(=O)[nH]3)nc2n1 [Compound 4e, 7-Fluoro-2-(((5-methoxy-1H-imidazo[4,5-b]pyridin-2-yl)thio)methyl)quinazolin-4(3H)-one]
cytotoxic effect (% inhibition) against LO2 ([1]; 50 μM, CCK8, 48 h): 15.33%
cytotoxic effect on LO2 (in words) ([1]; highest concentration 50 μM): nonsignificant cytotoxic effect; also recorded: negligible cytotoxic effects
cytotoxic effect (% inhibition) against 293T ([3]; 50 μM, CCK8, 48 h): 9.35%
cytotoxic effect on 293T (in words) ([3]; highest concentration 50 μM): nonsignificant cytotoxic effect; also recorded: negligible cytotoxic effects
IFN-β expression level in serum, cGAMP-compound 4e group compared with free-cGAMP group ([4]; 5 mg/kg cGAMP and 0.5 mg/kg compound 4e i.v.): higher

Compound: N.N.[Cl][Pt][Cl] [Cisplatin, cisplatin, reference compound]
IC50 [5]: 3.2 µM

inhibition at 10 µM [6]: 52.9%
Compound: COc1ccc2[nH]c(SCc3nc4cc(Cl)ccc4c(=O)[nH]3)nc2n1 [Compound 4f, 7-Chloro-2-(((5-methoxy-1H-imidazo[4,5-b]pyridin-2-yl)thio)methyl)quinazolin-4(3H)-one]

inhibition at 10 µM [6]: 75.4%
Compound: COc1ccc2[nH]c(SCc3nc4cc(C)ccc4c(=O)[nH]3)nc2n1 [Compound 4c, 2-(((5-Methoxy-1H-imidazo[4,5-b]pyridin-2-yl)thio)methyl)-7-methylquinazoli-n-4(3H)-one]

inhibition at 10 µM [6]: 72.7%
Compound: COc1ccc2[nH]c(SCc3nc4c(C)cccc4c(=O)[nH]3)nc2n1 [Compound 4g, 2-(((5-Methoxy-1H-imidazo[4,5-b]pyridin-2-yl)thio)methyl)-8-methylquinazoli-n-4(3H)-one]

Compound: Nc1nc2c(ncn2[C@@H]2O[C@@H]3COP(=O)(O)O[C@H]4[C@@H](O)[C@H](n5cnc6c(N)ncnc65)O[C@@H]4COP(=O)(O)O[C@@H]2[C@@H]3O)c(=O)[nH]1 [cGAMP, 2′,3′-cyclic GMP-AMP, reference compound]
IFN-β in serum, free cGAMP compared with model mice ([4]; 5 mg/kg cGAMP i.v.): upregulation

inhibition at 10 µM [6]: 55.5%
Compound: COc1ccc2[nH]c(SCc3nc4c(Br)cccc4c(=O)[nH]3)nc2n1 [Compound 4h, 8-Bromo-2-(((5-methoxy-1H-imidazo[4,5-b]pyridin-2-yl)thio)methyl)quinazoli-n-4(3H)-one]

IC50 [2]: 3340 nM
inhibition at 10 µM [6]: > 90%
IC50 [6]: 694 nM
Compound: COC(=O)c1ccc2c(=O)[nH]c(CSc3nc4nc(OC)ccc4[nH]3)nc2c1 [Compound 4d, Methyl 2-(((5-methoxy-1H-imidazo[4,5-b]pyridin-2-yl)thio)methyl)-4-oxo-3,4-dihydroquina-zoline-7-carboxylate]

inhibition at 10 µM [6]: 76.5%
Compound: COc1ccc2nc(CSc3nc4nc(OC)ccc4[nH]3)[nH]c(=O)c2c1 [Compound 4b, 6-Methoxy-2-(((5-methoxy-1H-imidazo[4,5-b]pyridin-2-yl)thio)methyl)quinaz-olin-4(3H)-one]

inhibition at 10 µM [6]: 72.2%
Compound: COc1ccc2[nH]c(SCc3nc4cccc(F)c4c(=O)[nH]3)nc2n1 [Compound 4a, 5-Fluoro-2-(((5-methoxy-1H-imidazo[4,5-b]pyridin-2-yl)thio)methyl)quinazol-in-4(3H)-one]

Source: article PMC9266353, “Development of Novel Ecto-Nucleotide Pyrophosphatase/Phosphodiesterase 1 (ENPP1) Inhibitors for Tumor Immunotherapy” (International Journal of Molecular Sciences, 2022)
